From US7019109B2, “SSTR1-selective analogs” (The Salk Institute for Bilogical Studies, priority 2001, dated 2006)
Like-named read-outs stand apart in the source and are kept apart here. *1 amine or outer side, *2 acyl side, *3 side chain or, on linkers, in order; H or OH if unused. Where a SMILES comes first, the peptide text is derived from it. Bridges are numbered along the chain shown (N, C = ends). [ ]: non-standard residue; d: D form. The star is where a group is joined. NMePhe(4-CH2NHiPr) = CN[C@@H](Cc1ccc(CNC(C)C)cc1)C(=O)O; Tyr(Nα-carbamoyl) = NC(=O)N[C@@H](Cc1ccc(O)cc1)C(=O)*; Phe(4-CH2NHiPr) = CC(C)NCc1ccc(C[C@H](N)C(=O)O)cc1; Tyr(3-I) = N[C@@H](Cc1ccc(O)c(I)c1)C(=O)O; X3 = NC(=O)N[C@@H](Cc1ccc(O)c(I)c1)C(=O)*; X1 = NC(=O)N[C@@H](CS[*:2])C(=O)[*:1]

How the values were obtained:
Assay type in all cases: binding
human SSTR1 = molecular target: T1, human SSTR1 (Homo sapiens, UniProt P30872); experiment: Displacement of 125I-[Leu8,D-Trp22,Tyr25]-SRIF-28 from cloned SSTR1 (receptor autoradiography)
T1 construct: expressed in transfected cells; host or cells: CHO-K1 cells and CCL39 cells
T1 sequence (P30872 whole entry): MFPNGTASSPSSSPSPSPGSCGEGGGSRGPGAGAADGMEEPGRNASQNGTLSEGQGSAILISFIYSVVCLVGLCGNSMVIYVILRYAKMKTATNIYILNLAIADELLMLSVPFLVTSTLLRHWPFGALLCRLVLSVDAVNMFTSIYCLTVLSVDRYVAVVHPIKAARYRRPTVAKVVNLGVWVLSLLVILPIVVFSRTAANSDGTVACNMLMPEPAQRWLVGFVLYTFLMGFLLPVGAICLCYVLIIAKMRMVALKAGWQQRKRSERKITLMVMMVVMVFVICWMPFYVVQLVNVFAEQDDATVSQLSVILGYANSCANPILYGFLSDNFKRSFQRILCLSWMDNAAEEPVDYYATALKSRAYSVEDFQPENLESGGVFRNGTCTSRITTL
Description: (§1) Generally, recombinant cells expressing the receptor are washed and homogenized to prepare a crude protein homogenate that is frozen, embedded and then cut in 10–20 μm thin sections, as known in this art. Candidate substances, such as potential SRIF agonists and antagonists, are incubated with the tissue sections, and the interaction between the candidate substance and the receptor polypeptide is monitored.
(§2) Receptor binding assays are performed on cloned SRIF receptors as generally set forth in Reubi, J. C. et al., J. Clin. Endocrinol. […] Med. 2000, 27, 273–282.
(§3) In vitro Bioassay: The various somatostatin analogs are tested in vitro for their ability to bind to isolated cloned receptors expressed on CHO-K1 cells and CCL39 cells. CHO-K1 cells are grown in Ham's F-12 medium, and CCL39 cells are grown in Dulbecco's modified Eagle's medium/Ham's F-12(1:1) mix, supplemented with 10% fetal bovine serum, 100 U/ml penicillin and 100 μg/ml streptomycin, in humidified air containing 5% CO2 at 37° C.
(§4) Cells are washed and prepared to produce homogenates as described in detail in Reubi, J. C. et al, Eur. J. Nucl. Med. 2000, 27, 273–282.
(§5) Receptor autoradiography is performed on 20 μm thick cryostat sections of the membrane pellets, mounted on microscope slides, and then stored at −20° C. […] Increasing concentrations of the unlabeled peptide are used ranging from 0.1–1000 nM. […] IC50 values are calculated after quantification of the data using a computer-assisted image processing system as known in this art.

human SSTR2 = molecular target: T2, human SSTR2 (Homo sapiens, UniProt P30874); experiment: Displacement of 125I-[Leu8,D-Trp22,Tyr25]-SRIF-28 from cloned SSTR2 (receptor autoradiography); details: read-out: IC50 (nM) mSSTR2
T2 construct: expressed in transfected cells; host or cells: CHO-K1 cells and CCL39 cells
T2 sequence (P30874 whole entry): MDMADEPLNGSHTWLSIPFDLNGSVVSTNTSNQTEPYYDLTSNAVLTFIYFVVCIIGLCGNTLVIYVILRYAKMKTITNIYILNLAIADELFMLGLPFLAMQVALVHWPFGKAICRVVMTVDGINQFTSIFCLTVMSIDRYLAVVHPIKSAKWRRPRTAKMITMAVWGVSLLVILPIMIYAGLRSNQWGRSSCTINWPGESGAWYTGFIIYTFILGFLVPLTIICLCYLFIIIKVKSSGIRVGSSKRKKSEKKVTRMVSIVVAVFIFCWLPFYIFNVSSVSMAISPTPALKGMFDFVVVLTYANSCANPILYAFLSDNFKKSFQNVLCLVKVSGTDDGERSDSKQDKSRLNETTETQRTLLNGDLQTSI
Description: as §1, §2, §3, §4
(§6) Receptor autoradiography is performed on 20 μm thick cryostat sections of the membrane pellets, mounted on microscope slides, and then stored at −20° C. […] […] […] IC50 values are calculated after quantification of the data using a computer-assisted image processing system as known in this art.

human SSTR3 = molecular target: T3, human SSTR3 (Homo sapiens, UniProt P32745); experiment: Displacement of 125I-[Leu8,D-Trp22,Tyr25]-SRIF-28 from cloned SSTR3 (receptor autoradiography); details: read-out: IC50 (nM) mSSTR3
T3 construct: expressed in transfected cells; host or cells: CHO-K1 cells and CCL39 cells
T3 sequence (P32745 whole entry): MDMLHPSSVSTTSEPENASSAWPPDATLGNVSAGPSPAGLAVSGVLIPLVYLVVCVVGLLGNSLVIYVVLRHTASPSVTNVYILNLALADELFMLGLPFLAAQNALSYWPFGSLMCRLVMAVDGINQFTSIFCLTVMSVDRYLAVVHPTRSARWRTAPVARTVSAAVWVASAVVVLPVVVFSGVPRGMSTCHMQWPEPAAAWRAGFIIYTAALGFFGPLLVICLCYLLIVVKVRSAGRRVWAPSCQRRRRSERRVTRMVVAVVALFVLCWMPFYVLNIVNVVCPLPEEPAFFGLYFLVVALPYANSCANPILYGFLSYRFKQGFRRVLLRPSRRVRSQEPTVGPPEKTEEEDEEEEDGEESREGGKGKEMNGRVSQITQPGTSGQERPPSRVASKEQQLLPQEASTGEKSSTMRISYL
Description: as §1, §2, §3, §4, §5

human SSTR4 = molecular target: T4, human SSTR4 (Homo sapiens, UniProt P31391); experiment: Displacement of 125I-[Leu8,D-Trp22,Tyr25]-SRIF-28 from cloned SSTR4 (receptor autoradiography); details: read-out: IC50 (nM) mSSTR4
T4 construct: expressed in transfected cells; host or cells: CHO-K1 cells and CCL39 cells
T4 sequence (P31391 whole entry): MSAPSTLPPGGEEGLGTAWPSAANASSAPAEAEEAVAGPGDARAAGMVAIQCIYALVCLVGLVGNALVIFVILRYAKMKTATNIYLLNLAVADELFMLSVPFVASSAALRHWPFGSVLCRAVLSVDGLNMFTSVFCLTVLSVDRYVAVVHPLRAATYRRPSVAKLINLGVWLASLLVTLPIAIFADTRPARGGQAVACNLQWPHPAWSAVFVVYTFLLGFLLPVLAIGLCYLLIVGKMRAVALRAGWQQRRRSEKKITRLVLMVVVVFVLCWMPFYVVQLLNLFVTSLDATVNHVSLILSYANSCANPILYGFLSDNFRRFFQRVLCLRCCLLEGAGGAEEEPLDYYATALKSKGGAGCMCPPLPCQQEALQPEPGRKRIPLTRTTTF
Description: as §1, §2, §3, §4, §5

human SSTR5 = molecular target: T5, human SSTR5 (Homo sapiens, UniProt P35346); experiment: Displacement of 125I-[Leu8,D-Trp22,Tyr25]-SRIF-28 from cloned SSTR5 (receptor autoradiography); details: read-out: IC50 (nM) mSSTR5
T5 construct: expressed in transfected cells; host or cells: CHO-K1 cells and CCL39 cells
T5 sequence (P35346 whole entry): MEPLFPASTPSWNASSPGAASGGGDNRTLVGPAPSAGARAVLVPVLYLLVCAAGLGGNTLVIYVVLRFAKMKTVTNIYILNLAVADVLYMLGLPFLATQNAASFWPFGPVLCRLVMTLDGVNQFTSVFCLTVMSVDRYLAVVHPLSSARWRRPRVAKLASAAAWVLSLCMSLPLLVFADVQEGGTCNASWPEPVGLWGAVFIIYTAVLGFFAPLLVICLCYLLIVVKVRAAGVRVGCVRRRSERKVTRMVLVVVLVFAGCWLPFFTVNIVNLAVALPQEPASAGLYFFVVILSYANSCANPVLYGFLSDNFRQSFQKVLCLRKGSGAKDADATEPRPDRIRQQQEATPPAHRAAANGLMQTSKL
Description: as §1, §2, §3, §4, §6

[1] = inhibition of radioligand binding of 125I-[Leu8,D-Trp22,Tyr24]SRIF-28, cloned receptor, table, read-out: IC50 (nM) mSSTR1
[2] = inhibition of radioligand binding of 125I-[Leu8,D-Trp22,Tyr24]SRIF-28, cloned receptor, table

In the case of `CC(C)NCc1ccc(C[C@H]2C(=O)N[C@@H]([C@@H](C)O)C(=O)N[C@@H](Cc3ccc(O)c(I)c3)C(=O)N[C@@H]([C@@H](C)O)C(=O)N[C@@H](CO)C(=O)N[C@H](C(=O)O)CSSC[C@H](NC(N)=O)C(=O)N[C@@H](CCCCN)C(=O)N[C@@H](Cc3ccccc3)C(=O)N[C@@H](Cc3ccccc3)C(=O)N[C@H](Cc3c[nH]c4ccccc34)C(=O)N2C)cc1` [Peptide No. 12D, (cyclo)CbmCys-Lys-Phe-Phe-D-Trp-N^αMeIAmp-Thr-ITyr-Thr-Ser-Cys-OH] (KFF[dW][NMePhe(4-CH2NHiPr)]T[Tyr(3-I)]TSC-OH; linker N-10 via X1), the IC50 (human SSTR1; [1]) is reported as 8.5 nM, the IC50 (human SSTR2) is reported as over 1000 nM and the IC50 (human SSTR3) is reported as over 1000 nM. It also gave an IC50 (human SSTR4) of 700 nM and an IC50 (human SSTR5) of over 1000 nM.
`CC(C)NCc1ccc(C[C@H]2C(=O)N[C@@H]([C@@H](C)O)C(=O)N[C@@H](Cc3ccccc3)C(=O)N[C@@H]([C@@H](C)O)C(=O)N[C@@H](CO)C(=O)N[C@H](C(=O)O)CSSC[C@H](N)C(=O)N[C@@H](CCCCN)C(=O)N[C@@H](Cc3ccccc3)C(=O)N[C@@H](Cc3ccccc3)C(=O)N[C@H](Cc3c[nH]c4ccccc34)C(=O)N2C)cc1` [Peptide No. 13, (cyclo)H-Cys-Lys-Phe-Phe-D-Trp-N^αMeIAmp-Thr-Phe-Thr-Ser-Cys-OH] (H-CKFF[dW][NMePhe(4-CH2NHiPr)]TFTSC-OH; disulfide 1-11) showed an IC50 (human SSTR1; displacement of iodinated SRIF-28 radioligand, read-out: IC50 / binding affinity at human SSTR1) of about 8.7 nM, an IC50 (human SSTR1; [1]) of 8.7 nM and an IC50 (human SSTR2) of over 10000 nM. The IC50 (human SSTR3) was 610 nM, the IC50 (human SSTR4) was 200 nM and the IC50 (human SSTR5) was over 10000 nM.
In the case of `CC(C)NCc1ccc(C[C@@H]2NC(=O)[C@@H](Cc3c[nH]c4ccccc34)NC(=O)[C@H](Cc3ccccc3)NC(=O)[C@H](Cc3ccccc3)NC(=O)[C@H](CCCCN)NC(=O)[C@@H](NC(=O)[C@H](Cc3ccc(O)cc3)NC(N)=O)CSSC[C@@H](C(=O)O)NC(=O)[C@H](CO)NC(=O)[C@H]([C@@H](C)O)NC(=O)[C@H](Cc3ccccc3)NC(=O)[C@H]([C@@H](C)O)NC2=O)cc1` [Peptide No. 14A, (cyclo)CbmTyr-Cys-Lys-Phe-Phe-D-Trp-IAmp-Thr-Phe-Thr-Ser-Cys-OH] ({Tyr(Nα-carbamoyl)}-CKFF[dW][Phe(4-CH2NHiPr)]TFTSC-OH; disulfide 1-11), the IC50 (human SSTR1; unit inferred, read-out: IC50 / binding affinity at SSTR1, unit inferred) is reported as 15 nM, the IC50 (human SSTR2) is reported as over 10000 nM and the IC50 (human SSTR3) is reported as 500 nM. The IC50 (human SSTR4; [2]) was over 1000 nM and the IC50 (human SSTR5) was over 1000 nM.
`CC(C)NCc1ccc(C[C@@H]2NC(=O)[C@@H](Cc3c[nH]c4ccccc34)NC(=O)[C@H](Cc3ccccc3)NC(=O)[C@H](Cc3ccccc3)NC(=O)[C@H](CCCCN)NC(=O)[C@@H](NC(=O)[C@H](Cc3ccc(O)c(I)c3)NC(N)=O)CSSC[C@@H](C(=O)O)NC(=O)[C@H](CO)NC(=O)[C@H]([C@@H](C)O)NC(=O)[C@H](Cc3ccccc3)NC(=O)[C@H]([C@@H](C)O)NC2=O)cc1` [Peptide No. 14B] (X3-CKFF[dW][Phe(4-CH2NHiPr)]TFTSC-OH; disulfide 1-11) showed an IC50 (human SSTR1; [1]) of 34.7 nM, an IC50 (human SSTR2) of over 1000 nM and an IC50 (human SSTR3) of 290 nM. It also gave an IC50 (human SSTR4) of over 1000 nM and an IC50 (human SSTR5) of over 1000 nM.
Compound `CC(C)NCc1ccc(C[C@@H]2NC(=O)[C@@H](Cc3c[nH]c4ccccc34)NC(=O)[C@H](Cc3ccccc3)NC(=O)[C@H](Cc3ccccc3)NC(=O)[C@H](CCCCN)NC(=O)[C@H](NC(=O)[C@H](Cc3ccc(O)cc3)NC(N)=O)CSSC[C@@H](C(=O)O)NC(=O)[C@H](CO)NC(=O)[C@H]([C@@H](C)O)NC(=O)[C@H](Cc3ccccc3)NC(=O)[C@H]([C@@H](C)O)NC2=O)cc1` [Peptide No. 14C, (cyclo)CbmTyr-D-Cys-Lys-Phe-Phe-D-Trp-IAmp-Thr-Phe-Thr-Ser-Cys-OH] ({Tyr(Nα-carbamoyl)}-[dC]KFF[dW][Phe(4-CH2NHiPr)]TFTSC-OH; disulfide 1-11) has an IC50 (human SSTR1; [1]) of 33 nM, an IC50 (human SSTR2) of over 10000 nM and an IC50 (human SSTR3) of over 1000 nM. For the same compound, the IC50 (human SSTR4; [2]) was 487 nM and the IC50 (human SSTR5) was over 1000 nM.
